In publication PMC12040169 (PLOS Biology, 2025):

Test: in vitro
Conditions: human, hela cells, % viability

| SMILES | viability at 28.5 h, 10 µM [%] |
| --- | --- |
| COc1ccc(C(Nc2ccnc(OC)c2C#N)[C@H]2C[C@@H](O)C2)cn1 (stereo partly shown) [CBK306980] | 84.6 |
| COCCNS(=O)(=O)c1cccc2c1CN(C(=O)CC1CCCC1)CC2 [CBK306982] | 101 |
| COCCN(Cc1ccncc1)C(=O)c1cc(C(C)C)n2ncnc2n1 [CBK306983] | 97.4 |
| Cc1ccc2nc(CNC(=O)N(C)CCc3c(C)n[nH]c3C)cn2c1 [CBK306984] | 81.1 |
| Cn1c(CN2CCN(c3ccc(C#N)cc3)CC2)nnc1[C@H]1C[C@@H](N)C1 [CBK306985] | 109 |
| CN1CCCCCC1c1nc(-c2c[nH]c3ccccc23)nn1CCO (stereo not shown) [CBK306988] | 96 |
| Cc1cccc(=O)n1CCCNc1cc(C2CCOC2)ncn1 (stereo not shown) [CBK306992] | 84.4 |
| CCCCSc1nc(N)cc(N2CCCC(N3CCCC3=O)C2)n1 (stereo not shown) [CBK306995] | 95.5 |
| CSc1ncc(CNC(=O)Nc2ccc3c(c2)CCC3)n1C [CBK306996] | 107 |
| Cc1ccn(CCNC(=O)C2CCC(=O)N(CCc3ccccn3)C2)n1 (stereo not shown) [CBK306998] | 93.5 |
| CCCCC(c1cccnc1)N(C)C(=O)c1cc(C)c(CC)n(C)c1=O (stereo not shown) [CBK306999] | 88.5 |
| CCCCSc1nc(N)cc(N2CCC3(CCNC(=O)CC3)CC2)n1 [CBK307001] | 98.2 |
| CC(C)NC(=O)NC1CCCc2nc(N3CCC(CO)CC3)ncc21 (stereo not shown) [CBK307002] | 83.3 |
| CSCCNC(=O)c1coc(COc2ccc3sc(C)nc3c2)n1 [CBK307004] | 99.3 |
| c1cnc(NCc2cc3n(n2)CCN(CC2CCCC2)C3)nc1 [CBK307007] | 87.9 |
| CN(CCc1cnn(C)c1)C(=O)NCCCN1CCCC1=O [CBK307008] | 91.1 |
| CC(=O)Nc1cccc(C(=O)N2CCC(OCc3ccccn3)CC2)c1 [CBK307009] | 114 |
| CCn1cc(CN(C)Cc2ccon2)c2cc(C(=O)O)ncc21 [CBK307017] | 84.7 |
| CCN(C)CC(=O)N1CCC(Oc2cc(C)ccc2F)(C(=O)O)CC1 [CBK307020] | 105 |
| Cc1nc(N)nc(N[C@@H]2CCOC[C@H]2OCCN(C)C)c1Cl [CBK307024] | 88.7 |
| Cc1cnc(NCC2(CO)CCOCC2)nc1N(C)C [CBK307026] | 104 |
| CCn1c(CC2CCN(c3nc(C)cc(C)c3C#N)CC2)nn(C)c1=O [CBK307027] | 111 |
| COCCn1c(CO)nnc1[C@H]1C[C@@H](NC(=O)c2cc(F)ccc2F)C1 [CBK307032] | 85.1 |

| SMILES | viability at 28.5 h, 10 µM [%] |
| --- | --- |
| Cn1cc(NC(=O)N2CCCN(Cc3ccccn3)CC2)nn1 [CBK307034] | 86.8 |
| Cc1nc(N2CCCCC2)ncc1C(=O)NCCc1cc[nH]n1 [CBK307035] | 113 |
| CCCN1CC(NS(=O)(=O)c2cc(OC)c(C)cc2OC)CC1=O (stereo not shown) [CBK307036] | 75.4 |
| N[C@H]1C[C@H](c2nnc(Cn3ncc(N4CCCC4)cc3=O)n2C2CC2)C1 [CBK307039] | 107 |
| CCOC(=O)N1CCN(C2CCCN(Cc3cnc(N(C)C)s3)C2)CC1 (stereo not shown) [CBK307041] | 93.7 |
| Nc1nonc1-n1cc(CN2CCCCC2)nn1 [CBK307044] | 97.1 |
| COCCn1cnnc1C(C)NC(=O)Cn1cc2ccccc2n1 (stereo not shown) [CBK307047] | 92.1 |
| CC(C)Cc1cc(CNC(=O)Nc2cc(-c3cccnc3)nn2C)no1 [CBK307048] | 84.9 |
| CC(C)CC(NC(=O)Cc1cccc(O)c1)c1ncnn1C (stereo not shown) [CBK307050] | 105 |
| CC(CN1CCOCC1)NS(=O)(=O)c1cccc(C(=O)N2CCCC2)c1 (stereo not shown) [CBK307053] | 107 |
| Cc1nc2ncc(-c3ccccc3C(=O)N(C(C)C)C(C)C)cn2n1 [CBK307054] | 84.1 |
| COCCN(Cc1cnn(C)c1)C(=O)c1ccc2oc(C)cc2c1 [CBK307059] | 96.6 |
| CN(CC1CCCC1)c1nccc(N2CCN[C@H]3CS(=O)(=O)C[C@H]32)n1 [CBK307060] | 83.9 |
| COCCn1c(CO)nnc1[C@H]1C[C@@H](NC(=O)c2ccc(C)s2)C1 [CBK307063] | 73.9 |
| Cc1nc(C(C)NC(=O)CCc2cnn(C)c2)c(C)s1 (stereo not shown) [CBK307064] | 92.6 |
| CCNc1ncc(C(=O)NC(CCn2ccnc2)c2ccccc2)cn1 (stereo not shown) [CBK307066] | 110 |
| Cc1nc2cc(OCc3nc(C(=O)NCC(O)CO)co3)ccc2s1 (stereo not shown) [CBK307067] | 102 |
| Cc1ccsc1C(=O)N1CCC(n2cc(C(C)(C)O)nn2)CC1 [CBK307069] | 110 |
| COc1cc(OC)c(CN2CC3(C)CC2CC(C)(C)C3)cc1Br (stereo not shown) [CBK307074] | 86.4 |
| O=C(c1ccc2c(c1)ncn2CCO)N1CCC(c2ccccc2F)C1 (stereo not shown) [CBK307075] | 88.5 |
| CSc1nccc(N2CCC(NCCCn3ccnn3)CC2)n1 [CBK307076] | 92.7 |
| CCc1ncc(C(=O)N(Cc2ccccn2)CC2CCCO2)cn1 (stereo not shown) [CBK307077] | 95.1 |
| CCc1c(C)cc(C(=O)N(C)C(CC)c2ccccn2)c(=O)n1C (stereo not shown) [CBK307078] | 95.6 |

| SMILES | viability at 28.5 h, 10 µM [%] |
| --- | --- |
| Cn1cc(CNC(=O)Nc2cc(C(=O)N3CCOCC3)ccc2Cl)cn1 [CBK307080] | 83.4 |
| CN(Cc1ccncn1)C(=O)c1cn(CC2CCCO2)nn1 (stereo not shown) [CBK307081] | 108 |
| Cc1nc2c(c(N(C)C)n1)CCN(C(=O)c1cnn(C(C)C)c1)C2 [CBK307083] | 109 |
| Cn1nnnc1SCCNC(=O)Nc1ccc(CN2CCOCC2)cc1 [CBK307084] | 97.4 |
| Cn1nccc1CCNS(=O)(=O)c1cccc(C(=O)N2CCCCC2)c1 [CBK307086] | 89.2 |
| Cc1nn(CC(=O)N(C)CCCc2nccn2C)c(=O)c2ccccc12 [CBK307087] | 92.2 |
| CCC(NC(=O)CCc1cc2n(n1)CCNC2)c1cn2cccnc2n1 (stereo not shown) [CBK307090] | 87.1 |
| CN(C)c1nc(N(C)CC2(CO)CCOCC2)ncc1F [CBK307091] | 110 |
| CC1(C)CC(NC(=O)c2cc(Cn3ccc4ccccc43)[nH]n2)CCO1 (stereo not shown) [CBK307092] | 87.7 |
| O=C(N[C@H]1C[C@H](c2nnc(CO)n2C2CC2)C1)c1ccc(Cl)c(F)c1 [CBK307093] | 91.4 |
| CCCn1cc(CNC(=O)c2cccc(S(=O)(=O)N3CCCC3)c2)cn1 [CBK307095] | 78.5 |
| Cc1cc(F)ccc1C(=O)NCC1CCN(c2cnn(C)c(=O)c2)C1 (stereo not shown) [CBK307097] | 112 |
| CC1CCc2c(sc(NC(=O)c3cccs3)c2C(=O)N(C)C)C1 (stereo not shown) [CBK307100] | 90.9 |
| COc1ccccc1CN(Cc1cccnc1)C(=O)CCn1cnnn1 [CBK307106] | 90.4 |
| CN(C(=O)C1CCc2nn(C)c(=O)n2C1)C1Cc2ccccc2C1 (stereo not shown) [CBK307108] | 107 |
| COc1cc2c(cc1-c1cn(CCc3n[nH]c(=O)[nH]3)nn1)CCC2 [CBK307112] | 98.3 |
| NC1CC(c2cc(NCCCc3nnc4ccccn34)ncn2)C1 (stereo not shown) [CBK307120] | 104 |
| CCCCC(c1cccnc1)N(C)C(=O)c1cnc(C)c(C)c1 (stereo not shown) [CBK307121] | 103 |
| CCCn1ncc(C(=O)N2CCN(CC3CCCN(C)C3)CC2)c1C (stereo not shown) [CBK307122] | 89.1 |
| CN1CCCN(c2cnn(Cc3ccc(Cl)s3)c(=O)c2)CC1 [CBK307123] | 90.8 |
| Cn1ccnc1CCC1CCCCN1C(=O)NCc1cccc(F)c1 (stereo not shown) [CBK307124] | 93.5 |
| CNC(=O)CN(C)Cc1c(C(=O)N2CCOCC2)nc2c(C)cccn12 [CBK307128] | 114 |
| CC(=O)N1CCc2nc(C)nc(NCCn3cccc3)c2CC1 [CBK307130] | 83.7 |

| SMILES | viability at 28.5 h, 10 µM [%] |
| --- | --- |
| Fc1cnc(N2CCCC3(CCOC3)C2)nc1N1CCOCC1 (stereo not shown) [CBK307131] | 84.5 |
| CCn1c(CC2CCN(C(=O)c3ccc(C)c(C)c3)CC2)nn(C)c1=O [CBK307133] | 87.8 |
| Cc1ccc2c(c1)c(C(=O)N1CCn3nc(CO)cc3C1)nn2C [CBK307134] | 104 |
| CCN1CC2(CCC1=O)CCN(Cc1nnc(-c3cccnc3)o1)CC2 [CBK307137] | 92.6 |
| CCOc1cc2c(cc1CN1CCN(Cc3noc(C)n3)CC1)CCC2 [CBK307138] | 83.1 |
| CCOC(=O)c1cn(CC)c2cc(F)c(OCC)cc2c1=O [CBK307139] | 87.8 |
| CCOC(=O)c1cn(CC)c2cc(N3CCSCC3)c(F)cc2c1=O [CBK307143] | 89.8 |
| CCn1cc(C(=O)NN)c(=O)c2cc(F)c(N3CCCC3)cc21 [CBK307146] | 82.9 |
| CC(C)CC(NC(=O)c1cccnc1)c1nnc2n1CCNCC2 (stereo not shown) [CBK307149] | 89.2 |
| O=C(Nc1ccnn1Cc1cccs1)N1Cc2cnn(CCO)c2C1 [CBK307150] | 89.7 |
| CN(Cc1nc2c(s1)CCCC2)C(=O)COc1ncnc2ccccc12 [CBK307151] | 90.7 |
| COc1cccc2ncn(CCCc3c(C)n[nH]c3C)c(=O)c12 [CBK307153] | 82.9 |
| Cn1nc(CO)c2c1CCN(CC(=O)Nc1nc(C(C)(C)C)cs1)C2 [CBK307161] | 85.7 |
| Cn1c(N2CC[C@H](O)C2)nc2cc(C(=O)NCC3CC3)ccc21 [CBK307164] | 92.1 |
| CC(=O)Nc1ccc(F)c(NC(=O)NCCN2CCCOC2=O)c1 [CBK307166] | 92.8 |
| CCOC(=O)c1cn(CC)c2cc(N3CCCC3)c(F)cc2c1=O [CBK307169] | 101 |
| CCn1cc(C(=O)N2CCCC2c2nccs2)c(=O)c2ccc(C)nc21 (stereo not shown) [CBK307171] | 86.4 |
| CC(C)(C)NC(=O)c1nn2c(c1Br)NC(c1cccs1)CC2C(F)(F)F (stereo not shown) [CBK307175] | 84.9 |
| CC(C)OC(=O)c1cc2n(n1)C(C(F)(F)F)CC(c1cccs1)N2 (stereo not shown) [CBK307176] | 87.6 |
| CCn1nc(C(C)C)cc1C(=O)N1CC2(CCNCC2)CC1C(=O)O (stereo not shown) [CBK307179] | 90.9 |
| O=C(c1nn2c(c1Br)NC(c1cccs1)CC2C(F)(F)F)N1CCCC1 (stereo not shown) [CBK307180] | 88.7 |
| Cc1cccc(=O)n1CCCn1cnc2nccnc2c1=O [CBK307186] | 116 |
